Source: patent US7528164B2, “Substituted 4-aryl-4h-pyrrolo[2,3-h]chromenes and analogs as activators of caspases and inducers of apoptosis and the use thereof” (Cytovia, Inc., priority 2002, dated 2009)
pEC50: −log10 of the molar value. Read-outs that look alike come from different tables or passages of the source.

Legend:
ZR-75-1 = assay: Caspase cascade activation assay in ZR-75-1 cells (N-(Ac-DEVD)-N'-ethoxycarbonyl-R110 fluorogenic substrate); format: cell-based; conditions: ZR-75-1 human breast cancer cells, 24 h incubation; for Caspase activity (Ratio): ratio of net RFU of test compound to control; for pEC50: sigmoidal dose-response, read-out: Caspase potency EC50
Protocol: (§1) Human breast cancer cell lines T-47D and ZR-75-1 were grown according to media component mixtures designated by American Type Culture Collection+10% FCS (Invitrogen Corporation), in a 5% CO2-95% humidity incubator at 37° C. T-47D and ZR-75-1 cells were maintained at a cell density between 30 and 80% confluency at a cell density of 0.1 to 0.6×10^6 cells/mL. Cells were harvested at 600×g and resuspended at 0.65×10^6 cells/mL into appropriate media+10% FCS. An aliquot of 45 μl of cells was added to a well of a 96-well microtiter plate containing 5 μl of a 10% DMSO in RPMI-1640 media solution containing about […] of 2-amino-3-cyano-4-(5-methyl-pyridin-3-yl)-7-methyl-4H-pyrrolo[2,3-h]chromene (Example 10) or other test compound (0.016 to 1 μM final). An aliquot of 45 μl of cells was added to a well of a 96-well microtiter plate containing 5 μl of a 10% DMSO in RPMI-1640 media solution without test compound as the control sample. The samples were mixed by agitation and then incubated at 37° C. for 24 h in a 5% CO2-95% humidity incubator. After incubation, the samples were removed from the incubator and 50 μl of a solution containing 20 μM of N-(Ac-DEVD)-N′-ethoxycarbonyl-R110 (SEQ ID No:1) fluorogenic substrate (Cytovia, Inc.; U.S. Pat. No. 6,335,429), 20% sucrose (Sigma), 20 mM DTT (Sigma), 200 mM NaCl (Sigma), 40 mM Na PIPES buffer pH 7.2 (Sigma), and 500 μg/ml lysolecithin (Calbiochem) was added. The samples were mixed by agitation and incubated at room temperature. Using a fluorescent plate reader (Model 1420 Wallac Instruments), an initial reading (T=0) was made approximately 1-2 min after addition of the substrate solution, employing excitation at 485 nm and emission at 530 nm, to determine the background fluorescence of the control sample. After the 3 h incubation, the samples were read for fluorescence as above (T=3 h).
(§2) The Relative Fluorescence Unit values (RFU) were used to calculate the sample readings as follows: RFU(T=3h)−Control RFU(T=0)=Net RFU(T=3h) The activity of caspase cascade activation was determined by the ratio of the net RFU value for 2-amino-3-cyano-4-(5-methyl-pyridin-3-yl)-7-methyl-4H-pyrrolo[2,3-h]chromene or other test compound to that of control samples. The EC50 (nM) was determined by a sigmoidal dose-response calculation (Prism 2.0, GraphPad Software Inc.).

T-47D = assay: Caspase cascade activation assay in T-47D cells (N-(Ac-DEVD)-N'-ethoxycarbonyl-R110 fluorogenic substrate); format: cell-based; conditions: T-47D human breast cancer cells, 24 h incubation; for pEC50: sigmoidal dose-response, read-out: Caspase potency EC50; for Caspase activity (Ratio): ratio of net RFU of test compound to control
Protocol: as §1, §2

Row | Molecule | pEC50 (ZR-75-1) | pEC50 (T-47D; T47D) | pEC50 (T-47D) | Caspase activity (Ratio) (ZR-75-1) | Caspase activity (Ratio) (T-47D)
1 | COc1cccc(C2C(C#N)=C(N)Oc3c2ccc2c3ccn2C)c1 (stereo not drawn) [Example 28, 2-Amino-3-cyano-4-(3-methoxyphenyl)-7-methyl-4H-pyrrolo[2,3-h]chromene] | 8.48 | 8.14 | – | 6.3 | 4.6
2 | Cn1ccc2c3c(ccc21)C(c1ccc(F)c(C#N)c1)C(C#N)=C(N)O3 (stereo not drawn) [Example 40J, 2-Amino-3-cyano-4-(3-cyano-4-fluorophenyl)-7-methyl-4H-pyrrolo[2,3-h]chromene] | 7.85 | 7.54 | – | 5.8 | 3.6
3 | CCC=CCC=CCC=CCC=CCC=CCC=CCCC(=O)OCn1ccc2c3c(ccc21)C(c1cc(Br)c(OC)c(OC)c1)C(C#N)=C(N)O3 (stereo not drawn) [Example 38, 4,7,10,13,16,19-Docosahexaenoic acid {2-Amino-4-(3-bromo-4,5-dimethoxy-phenyl)-3-cyano-4H-pyrrolo[2,3-h]chromene}-7-ylmethyl ester] | 7.54 | – | 7.26 | 6.9 | 5.2
4 | COc1cc(C2C(C#N)=C(N)Oc3c2ccc2c3CCN2C)cc(Br)c1OC (stereo not drawn) [Example 23, 2-Amino-4-(3-bromo-4,5-dimethoxyphenyl)-3-cyano-8,9-dihydro-7-methyl-4H-pyrrolo[2,3-h]chromene] | 8.64 | 8.48 | – | 5.0 | 5.2
5 | COc1cncc(C2C(C#N)=C(N)Oc3c2ccc2c3ccn2C)c1 (stereo not drawn) [Example 41, 2-Amino-3-cyano-4-(5-methoxy-pyridin-3-yl)-7-methyl-4H-pyrrolo[2,3-h]chromene] | 8.70 | 8.40 | – | 4.2 | 3.8
6 | COc1cc(C2C(C#N)=C(N)Oc3c2ccc2c3ccn2CO)cc(Br)c1OC (stereo not drawn) [Example 17, 2-Amino-4-(3-bromo-4,5-dimethoxyphenyl)-3-cyano-7-hydroxymethyl-4H-pyrrolo[2,3-h]chromene] | 8.80 | 8.68 | – | 3.3 | 7.2
7 | Cn1ccc2c3c(ccc21)C(c1ccc([N+](=O)[O-])s1)C(C#N)=C(N)O3 (stereo not drawn) [Example 37, 2-Amino-4-(5-nitro-thiophene-2-yl)-3-cyano-7-methyl-4H-pyrrolo[2,3-h]chromene] | 7.44 | < 7.00 | – | 6.7 | 2.0
8 | Cn1ccc2c3c(ccc21)C(c1c[nH]c2ccccc12)C(C#N)=C(N)O3 (stereo not drawn) [Example 8, 2-Amino-3-cyano-4-(indol-3-yl)-7-methyl-4H-pyrrolo[2,3-h]chromene] | 7.26 | 7.23 | – | 8.9 | 3.8
9 | Cn1ccc2c3c(ccc21)C(c1cccc(Br)c1)C(C#N)=C(N)O3 (stereo not drawn) [Example 29, 2-Amino-3-cyano-4-(3-bromophenyl)-7-methyl-4H-pyrrolo[2,3-h]chromene] | 8.24 | 7.92 | – | 6.3 | 3.3
10 | COc1cc(C2C(C#N)=C(N)Oc3c2ccc2c3ccn2C(C)C)cc(Br)c1OC (stereo not drawn) [Example 43, 2-Amino-3-cyano-4-(3-bromo-4,5-dimethoxy-phenyl)-7-isopropyl-4H-pyrrolo[2,3-h]chromene] | 7.26 | 7.24 | – | 6.3 | 2.5
11 | COc1cc(C2C(C#N)=C(N)Oc3c2ccc2c3ccn2C)cc(I)c1OC (stereo not drawn) [Example 31, 2-Amino-3-cyano-4-(4,5-dimethoxy-3-iodophenyl)-7-methyl-4H-pyrrolo[2,3-h]chromene] | 8.43 | 8.31 | – | 4.3 | 6.3
12 | 2-Amino-4-(5-bromo-pyridin-3-yl)-3-cyano-7-methyl-4H-imidazo[4,5-h]chromene [Example 13] | 8.49 | – | 8.17 | 8.0 | 8.8
13 | COc1cc(C2C(C#N)=C(N)Oc3c2ccc2c3c(C)cn2C)cc(Br)c1OC (stereo not drawn) [Example 40F, 2-Amino-3-cyano-4-(3-bromo-4,5-dimethoxyphenyl)-7,9-dimethyl-4H-pyrrolo[2,3-h]chromene] | 7.59 | 7.38 | – | 3.9 | 2.6
14 | Cn1ccc2c3c(ccc21)C(c1cncc(C#N)c1)C(C#N)=C(N)O3 (stereo not drawn) [Example 1, 2-Amino-4-(5-cyano-pyridin-3-yl)-3-cyano-7-methyl-4H-pyrrolo[2,3-h]chromene] | 8.19 | 7.59 | – | 5.2 | 8.3
15 | CC(C)n1ccc2c3c(ccc21)C(c1cc(Cl)cc(Cl)c1)C(C#N)=C(N)O3 (stereo not drawn) [Example 42, 2-Amino-3-cyano-4-(3,5-dichloro-phenyl)-7-isopropyl-4H-pyrrolo [2,3-h]chromene] | 7.24 | < 7.00 | – | 2.6 | 1.8
16 | Cn1ccc2c3c(ccc21)C(c1cc(Cl)cc(Cl)c1)C(C#N)=C(N)O3 (stereo not drawn) [Example 40D, 2-Amino-3-cyano-4-(3,5-dichlorophenyl)-7-methyl-4H-pyrrolo[2,3-h]chromene] | 7.82 | 7.60 | – | 2.9 | 3.3

More lines, in order of rising pEC50 (ZR-75-1), values ahead:

Row | pEC50 (ZR-75-1) | pEC50 (T-47D; T47D) | pEC50 (T-47D) | Molecule | Caspase activity (Ratio) (ZR-75-1) | Caspase activity (Ratio) (T-47D)
17 | 6.59 | – | 6.38 | 2-Amino-4-(3-bromo-4,5-dimethoxyphenyl)-3-cyano-7-(2-diethyl-amino-ethyl)-4H-pyrrolo[2,3-h]chromene [Example 6] | 7.0 | 3.3
18 | 6.97 | 6.64 | – | COc1cc(C2C(C#N)=C(N)Oc3c2ccc2c3ccn2CC2CO2)cc(Br)c1OC (stereo not drawn) [Example 19, 2-Amino-4-(3-bromo-4,5-dimethoxyphenyl)-3-cyano-7-oxiranylmethyl-4H-pyrrolo[2,3-h]chromene] | 11.7 | 10.2
19 | 7.09 | < 7.00 | – | Cn1ccc2c3c(ccc21)C(c1ccc(Cl)c(Cl)c1)C(C#N)=C(N)O3 (stereo not drawn) [Example 40E, 2-Amino-3-cyano-4-(3,4-dichlorophenyl)-7-methyl-4H-pyrrolo[2,3-h]chromene] | 3.2 | 1.3
20 | 7.46 | 7.26 | – | Cn1ccc2c3c(ccc21)C(c1ccc(C#N)cc1)C(C#N)=C(N)O3 (stereo not drawn) [Example 40B, 2-Amino-3-cyano-4-(4-cyanophenyl)-7-methyl-4H-pyrrolo[2,3-h]chromene] | 4.2 | 4.9
21 | 7.56 | 7.24 | – | Cn1ccc2c3c(ccc21)C(c1cnc2ccccc2n1)C(C#N)=C(N)O3 (stereo not drawn) [Example 3, 2-Amino-3-cyano-7-methyl-4-(quinoxalin-2-yl)-4H-pyrrolo[2,3-h]-chromene] | 3.1 | 5.6
22 | 7.98 | – | 7.70 | 2-Amino-3-cyano-4-(5-methyl-pyridin-3-yl)-7-methyl-4H-imidazo[4,5-h]chromene [Example 14] | 9.9 | 8.0
23 | 8.30 | 7.89 | – | Cc1cncc(C2C(C#N)=C(N)Oc3c2ccc2c3CCN2C)c1 (stereo not drawn) [Example 36, 2-Amino-4-(5-methyl-pyridin-3-yl)-3-cyano-7-methyl-8,9-dihydro-4H-pyrrolo[2,3-h]chromene] | 6.3 | 4.6
24 | 8.80 | 8.64 | – | Cc1cncc(C2C(C#N)=C(N)Oc3c2ccc2c3ccn2C)c1 (stereo not drawn) [Example 10, 2-Amino-3-cyano-4-(5-methyl-pyridin-3-yl)-7-methyl-4H-pyrrolo[2,3-h]chromene] | 6.6 | 3.1
